Values after ≈ are worked out from the molar mass of the structure shown. Active and inactive are the calls of the source. No cut-off for these calls is given here.
Assays:
[1] = Stability in simulated gastric acid assessed as compound remaining at pH 1.3 measured at 1 hr; format: ADME; settings: read-out: Stability
[2] = Stability in simulated gastric acid assessed as compound remaining at pH 1.3 measured at 1.5 hrs; format: ADME; settings: read-out: Stability
[3] = Stability in simulated gastric acid assessed as compound remaining at pH 1.3 measured at 2 hrs; format: ADME; settings: read-out: Stability
[4] = tested on: Staphylococcus aureus; test: Antibacterial activity against Linezolid-resistant Staphylococcus aureus infected in systemic infection SPF-kunming mouse model assessed as survival rate at 10 to 40 mg/kg, IG measured 3 days after infection; format: functional, organism-based; settings: dose 10-40 mg/kg
[5] = tested on: Staphylococcus aureus; test: Antibacterial activity against Linezolid-resistant Staphylococcus aureus infected in systemic infection IG dosed SPF-kunming mouse model assessed as survival rate measured every day for 7 days; format: functional, organism-based; settings: dose 2.5-40 mg/kg, time 7.0 day
[6] = tested on: Staphylococcus aureus; test: Antibacterial activity against Linezolid-resistant Staphylococcus aureus infected in systemic infection SPF-kunming mouse model assessed as survival rate at 10 mg/kg, IG measured every day for 7 days; format: functional, organism-based; settings: time 7.0 day
[7] = biological target: T1, Amine oxidase [flavin-containing] B (Homo sapiens, UniProt P27338); test: Inhibition of MAO-B (unknown origin) preincubated with compound for 15 mins followed by substrate addition and measured after 60 mins by luminescence based microplate reader analysis; format: toxicity
T1 sequence (P27338 whole entry): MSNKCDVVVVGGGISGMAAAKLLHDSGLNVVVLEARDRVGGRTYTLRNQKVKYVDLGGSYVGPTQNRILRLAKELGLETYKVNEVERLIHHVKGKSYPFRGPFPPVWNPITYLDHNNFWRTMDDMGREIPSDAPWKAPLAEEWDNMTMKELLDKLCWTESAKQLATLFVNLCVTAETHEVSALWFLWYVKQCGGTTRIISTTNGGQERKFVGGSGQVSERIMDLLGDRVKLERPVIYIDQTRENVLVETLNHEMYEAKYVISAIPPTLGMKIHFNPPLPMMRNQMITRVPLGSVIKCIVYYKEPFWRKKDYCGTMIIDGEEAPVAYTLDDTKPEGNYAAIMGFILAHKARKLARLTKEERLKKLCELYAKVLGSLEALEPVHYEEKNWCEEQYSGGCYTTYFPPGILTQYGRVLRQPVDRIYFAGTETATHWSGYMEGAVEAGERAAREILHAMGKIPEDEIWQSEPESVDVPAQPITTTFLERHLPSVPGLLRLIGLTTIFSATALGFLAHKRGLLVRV

[8] = tested on: Staphylococcus aureus; test: Antibacterial activity against methicillin-resistant Staphylococcus aureus assessed as inhibition of bacterial growth; format: functional
[9] = tested on: Staphylococcus aureus; test: Antibacterial activity against vancomycin-resistant Staphylococcus aureus assessed as inhibition of bacterial growth; format: functional

CC(C)N/N=C/c1ccc(-c2ccc(N3C[C@H](CO)OC3=O)cc2F)cn1
remaining at 1 h [1]: 94.3%
remaining at 1.5 h [2]: 90.8%
remaining at 2 h [3]: 87.1%

O=C1O[C@@H](CO)CN1c1ccc(-c2ccc(/C=N/N3CCCCC3)nc2)c(F)c1
Activity [4]: inactive

O=C1O[C@@H](CO)CN1c1ccc(-c2ccc(/C=N/N3CCOCC3)nc2)c(F)c1
Activity [5]: Dose-Dependent Effect
Activity [6]: Active
IC50 [7]: 34.8 µM

CC(=O)NC[C@H]1CN(c2ccc(N3CCOCC3)c(F)c2)C(=O)O1 [LINEZOLID]
MIC [8]: 1 µg/mL (≈ 2.96 µM)
MIC [9]: 1 µg/mL (≈ 2.96 µM)
